In US10471082B2, “Flavivirus protease inhibitors” (priority 2012, dated 2019):

Tests used:
[1] = Cell viability (CellTiter Glo) in Vero-WNV cells; assay type: cell-based; conditions: monkey, ATP production
Procedure: (§1) Both drug efficacy and cytotoxicity were measured using the same experimental plate. Prior to compound treatment, BHK21-DENV2 or Vero-WNV cells at […] were plated in 96-well plates with each well containing 10^4 cells. After 24 h incubation, the medium was replaced with 100 μL fresh medium containing different compound concentrations (0.5, 1, 2, 5, 10, and 25 μM) in triplicate wells. Cells were incubated again for 24 h. Cells were then washed with PBS and the luminescence signal from Renilla luciferase activity was read using the Renilla luciferase assay kit (Promega Corp; Fitchburg, Wis.) using a luminometer (Berthold Technologies, Inc.; Oak Ridge, Tenn.). Cell viability (CC50) was measured as amount of ATP production in viable (live) cells using a chemiluminescence detection method (CellTiter Glo kit from Promega Corp) using the Model LB960 luminometer (Berthold Technologies). The EC50 and CC50 values of selected compounds were calculated similar to IC50s using GraphPad Prism v5. Experiments were done in duplicates.

DENV-2 protease = molecular target: T1, DENV-2 protease (Dengue virus type 2, UniProt P14340); experiment: In vitro protease assay, DENV-2 NS2B-NS3pro; assay type: biochemical, Dengue virus serotype 2; conditions: for inhibition at 10 µM: 10 μM inhibitor, read-out: % Inhib. DENV 2 Protease at 10 μM; for inhibition at 25 µM: 25 μM inhibitor, read-out: % Inhib. DENV 2 Protease at 25 μM; for IC50: substrate Bz-Nle-Lys-Arg-Arg-AMC, triplicate, read-out: IC50 DENV2
T1 construct: expression plasmids pQE30-NS2BH(QR)-NS3pro and WNV clone 107, respectively; made in house; host or cells: E. coli TOP10F' cells
T1 sequence (P14340 1476-1653): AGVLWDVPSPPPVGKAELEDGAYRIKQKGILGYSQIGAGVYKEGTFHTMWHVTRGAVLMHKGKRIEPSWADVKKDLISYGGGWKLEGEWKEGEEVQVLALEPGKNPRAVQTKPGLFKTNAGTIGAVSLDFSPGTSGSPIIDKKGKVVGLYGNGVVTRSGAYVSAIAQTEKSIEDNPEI
Procedure: (§2) DENV-2 and WNV proteases were expressed from 2 L cultures of TOP10F′ cells (Invitrogen; Carlsbad, Calif.) transformed with expression plasmids pQE30-NS2BH(QR)-NS3pro and WNV clone 107, respectively. Cultures were grown in LB medium supplemented with ampicillin (100 μg/mL) and 0.1% glucose at 37° C. until the OD600 reached 0.6-0.7. The medium was then replaced with fresh LB-ampicillin with 1 mM IPTG. Expression was done at 20° C. for 16 h. Cells were then pelleted and either frozen or used immediately for purification using a Talon metal affinity resin (Clontech; Mountain View, Calif.).
(§3) A reaction mixture was prepared containing 200 mM Tris pH 9.5, 30% glycerol, 0.1% CHAPS detergent (to prevent non-specific aggregation of compounds), 50 nM DENV2QRpro enzyme and 10 μM Bz-Nle-Lys-Arg-Arg-AMC in each 30 μL reaction in duplicate 384-well plates. Aprotinin (2 μM) was used as a positive control. Compounds which inhibited the cleavage of the substrate by at least 50% were considered as positive hits. From the list of positive compounds, the highest scoring hits were selected for further analysis. […] Out of the 29 compounds, only 22 dissolved in DMSO at 5 mM. The activities of the 22 compounds were tested against DENV-2 and WNV proteases at 10 and 25 μM of the inhibitor concentration. […] A control containing only 2% DMSO and the substrate was used to achieve the minimum value of relative fluorescence units (RFU) for background subtraction. Compounds that reduced the protease activity by ≥70% were selected for further analysis.
(§4) Compound I, Compound II, Compound III, Compound IV, Compound V, Compound VI, and Compound VII were analyzed by in vitro protease assays. The compounds were tested for DENV-2 and WNV protease inhibition activity. All assays were done in triplicate in black 96-well plates. Protease activity experiments were performed in vitro using purified viral protease NS2B-N53-pro from DENV-2 or WNV. The reaction mixture of 100 μL/well contained 200 mM Tris pH 9.5, 30% glycerol, 27 nM WNV, 2% DMSO and fluorogenic tetra-peptide substrate Bz-Nle-Lys-Arg-Arg-AMC at concentrations that varied (0.05, 0.1, 0.5, 1, 2, 5, 10, and 25 μM). The percent activities after 30 min versus inhibitor concentration were plotted in GraphPad Prism v5.04 using the four-parameter nonlinear regression (Hill slope method).
(§5) In all assays, the inhibitor-enzyme complex was allowed to form by pre-incubation for 15 min at room temperature (RT) before addition of the substrate. After 5 min incubation, reactions were monitored by the release of free AMC, every 1.5 min for 30 min. The fluorescence emission was recorded at 465 nm following excitation at 385 nm using the Spectra Max Gemini EM (Molecular Devices; Silicon Valley, Calif.). The relative fluorescence units (RFU) were converted to absolute AMC product concentrations using Excel, where the data were transformed using the slope from the linear regression of the AMC calibration curve generated from the fluorescence values versus micromolar (μM) concentrations of free AMC. RFUs, obtained in a standard assay in the absence of inhibitors, were taken as 100% protease activity (or 0% inhibition), the background value (no protease) as 0% activity (or 100% inhibition). Kinetic values were determined using Microsoft Excel and GraphPad Prism 5 (La Jolla, Calif.).

[2] = system: DENV2 replicon-expressing BHK21 cells; experiment: DENV2 replicon assay (Renilla luciferase); assay type: cell-based; conditions: Dengue virus, DENV2, BHK-21
From the text: (§6) The efficacy of the compounds was also examined in cell-based assays performed in mammalian cells. Mammalian cells are the host for replication of the virus; a compound added to the growth medium of the mammalian cell in which a replicon RNA or dengue virus is replicating, the compound of interest could permeate the cell and interfere with the replication process. If there is a quantitative read-out of replication efficiency, the potency of the inhibitor compound could be evaluated in a quantifiable manner. There are two types of quantifiable assays available both employing mammalian cells; the first is the Baby Hamster Kidney (BHK) or monkey kidney (Vero) cells harboring DENV-2 or WNV replicon RNA, respectively, in a continuously replicating state and these are “stable replicon-expressing” cells. […] The inhibition of infectivity of the virus by the compound is measured by the extent of reduction of the titer of virus determined by plaque assay.
(§7) Both drug efficacy and cytotoxicity were measured using the same experimental plate. […] Cells were then washed with PBS and the luminescence signal from Renilla luciferase activity was read using the Renilla luciferase assay kit (Promega Corp; Fitchburg, Wis.) using a luminometer (Berthold Technologies, Inc.; Oak Ridge, Tenn.). […] The EC50 and CC50 values of selected compounds were calculated similar to IC50s using GraphPad Prism v5. […]

[3] = system: WNV replicon-expressing Vero cells; experiment: WNV replicon assay (Renilla luciferase); assay type: cell-based; conditions: West Nile virus, 24 h
From the text: as §6, §7

[4] = Cell viability (CellTiter Glo) in BHK21-DENV2 cells; assay type: cell-based; conditions: hamster, ATP production
Procedure: as §1
Following a similar protocol, the EC50 and CC50 values of Compounds III and V for inhibition of DENV2 replicon-expressing BHK21 cells and cell viability of those cells treated with Compounds III and V were determined.

DENV-3 protease = DENV-3 protease (Dengue virus type 3, UniProt P27915); experiment: DENV-3 protease inhibition; assay type: biochemical, Dengue virus serotype 3
Chain of DENV-3 protease (P27915 1474-1651): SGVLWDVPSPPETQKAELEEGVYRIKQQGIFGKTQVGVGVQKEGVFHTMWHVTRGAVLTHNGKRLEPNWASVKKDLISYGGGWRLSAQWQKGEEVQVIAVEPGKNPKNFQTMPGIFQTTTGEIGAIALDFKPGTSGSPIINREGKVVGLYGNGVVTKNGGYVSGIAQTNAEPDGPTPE
Chain of DENV-3 protease (P27915 1392-1438): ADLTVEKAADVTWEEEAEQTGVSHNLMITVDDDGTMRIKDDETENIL

DENV-4 protease = DENV-4 protease (Dengue virus type 4, UniProt P09866); experiment: DENV-4 protease inhibition; assay type: biochemical, Dengue virus serotype 4
Chain of DENV-4 protease (P09866 1475-1652): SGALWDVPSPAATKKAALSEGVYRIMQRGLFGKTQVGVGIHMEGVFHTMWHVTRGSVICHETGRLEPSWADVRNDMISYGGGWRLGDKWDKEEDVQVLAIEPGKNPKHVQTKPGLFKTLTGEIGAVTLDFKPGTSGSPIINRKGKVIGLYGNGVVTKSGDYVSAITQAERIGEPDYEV
Chain of DENV-4 protease (P09866 1393-1439): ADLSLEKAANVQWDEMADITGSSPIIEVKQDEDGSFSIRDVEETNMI

DENV-1 protease = DENV-1 protease (Dengue virus type 1, UniProt P17763); experiment: DENV-1 protease inhibition; assay type: biochemical, Dengue virus serotype 1
Chain of DENV-1 protease (P17763 1394-1440): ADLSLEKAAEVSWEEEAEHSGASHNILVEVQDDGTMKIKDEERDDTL
Chain of DENV-1 protease (P17763 1476-1653): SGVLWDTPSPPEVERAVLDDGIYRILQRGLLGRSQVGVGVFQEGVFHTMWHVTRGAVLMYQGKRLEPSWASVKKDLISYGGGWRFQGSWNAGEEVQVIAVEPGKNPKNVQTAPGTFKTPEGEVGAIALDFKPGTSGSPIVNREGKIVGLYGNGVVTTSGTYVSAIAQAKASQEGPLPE

Dengue virus = experiment: Plaque assay for anti-dengue viral activity; assay type: cell-based; conditions: for virus titer: BHK 21 cells, MOI 1, 48 h, no-treatment 2×10^5; for EC50: Dengue virus, read-out: EC50 in virus replication
From the text: The efficacy of the compounds was also examined in cell-based assays performed in mammalian cells. Mammalian cells are the host for replication of the virus; a compound added to the growth medium of the mammalian cell in which a replicon RNA or dengue virus is replicating, the compound of interest could permeate the cell and interfere with the replication process. If there is a quantitative read-out of replication efficiency, the potency of the inhibitor compound could be evaluated in a quantifiable manner. There are two types of quantifiable assays available both employing mammalian cells; the first is the Baby Hamster Kidney (BHK) or monkey kidney (Vero) cells harboring DENV-2 or WNV replicon RNA, respectively, in a continuously replicating state and these are “stable replicon-expressing” cells. The second assay is infectivity assays in which mammalian cells are infected with DENV and the compound of interest is added at various concentrations and incubated. The inhibition of infectivity of the virus by the compound is measured by the extent of reduction of the titer of virus determined by plaque assay.
BHK 21 cells (1×10^5) were plated onto each well of 12 well-cell culture plate. […] One hour later, the Dengue virus was added (MOI:1). After an additional 48 hours, the supernatant was collected and tested by the plaque assay.
LLC-MK2 cells were plated at 2.5×10^5 cells per well in 6-well plates containing 2 ml culture medium and incubated overnight. Serially diluted supernatants from BHK21 cells treated with compounds at different concentrations as described above were incubated with cells in paired wells of six-well plates for 2 h. Cells were overlaid with 1× media containing 0.5% Sea-Kem GTG agarose (FMC Bioproducts; Philadelphia, Pa.) and were incubated for 7 days at 37° C. and visualized by staining with 0.01% neutral red solution overnight.

WNV protease = molecular target: T2, WNV protease (West Nile virus, UniProt Q9Q6P4); experiment: In vitro protease assay, WNV NS2B-NS3pro; assay type: biochemical; conditions: for inhibition at 10 µM: read-out: % Inhib. WNV Protease at 10 μM; for inhibition at 25 µM: read-out: % Inhib. WNV Protease at 25 μM
T2 construct: purified viral protease NS2B-N53-pro from DENV-2 or WNV; made in house; host or cells: E. coli TOP10F' cells
T2 sequence (Q9Q6P4 1506-1683): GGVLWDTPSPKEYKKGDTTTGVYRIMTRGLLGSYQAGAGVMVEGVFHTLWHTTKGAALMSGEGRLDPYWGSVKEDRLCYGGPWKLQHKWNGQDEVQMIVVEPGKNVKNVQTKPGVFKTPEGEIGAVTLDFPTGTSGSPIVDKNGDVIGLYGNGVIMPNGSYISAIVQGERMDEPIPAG
T2 sequence (Q9Q6P4 1375-1505): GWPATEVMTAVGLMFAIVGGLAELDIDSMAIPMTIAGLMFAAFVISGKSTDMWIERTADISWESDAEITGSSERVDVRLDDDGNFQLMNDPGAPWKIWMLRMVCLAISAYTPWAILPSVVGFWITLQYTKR
Procedure: as §2, §3, §4, §5

SMILES	inhibition at 10 µM (DENV-2 protease)	inhibition at 25 µM (DENV-2 protease)	IC50 (DENV-2 protease)	EC50 (Dengue virus)	IC50 (WNV protease)	inhibition at 10 µM (WNV protease)	inhibition at 25 µM (WNV protease)	other results
Cc1ccc(C2=NC(=O)/C(=C/c3cc(O)c(O)c(Br)c3)S2)cc1 [Compound III]	96%	94%	3.4 µM	< 10 µM	1.3 µM	98%	98%	CC50 at 24 h [1]: 130 µM; EC50 [2]: 7.2 µM; EC50 [3]: 3.7 µM; CC50 at 24 h [4]: 407 µM; IC50 (DENV-3 protease): 4.8 ± 1.1 µM; IC50 (DENV-4 protease): 3.92 ± 0.05 µM; IC50 (DENV-1 protease): 5.99 ± 1.4 µM; fold reduction of virus titer (Dengue virus; 10 μM compound): 3.3 fold; virus titer (Dengue virus; 10 μM compound): 6×10^4 PFU/ml; fold reduction of virus titer (Dengue virus; 15 μM compound): 5 fold; virus titer (Dengue virus; 15 μM compound): 4×10^4 PFU/ml; fold reduction of virus titer (Dengue virus; 20 μM compound): 100 fold; virus titer (Dengue virus; 20 μM compound): 2×10^3 PFU/ml
Cc1sc2nc(SCC(=O)c3ccc(O)c(O)c3)[nH]c(=O)c2c1C [Compound II]	57%	92%	8.8 µM		9.7 µM	45%	92%	inhibition of the virus titer (Dengue virus; 20 μM compound): did not show a significant inhibition
O=c1c(Oc2ccccc2)c(C(F)(F)F)oc2c(O)c(O)ccc12 [Compound IV]	63%	82%	8.5 µM	< 20 µM	6.7 µM	71%	95%	
COCc1cc(C)nc(SCC(=O)c2ccc(O)c(O)c2)c1C#N [Compound I]	51%	89%	10.5 µM		9 µM	54%	95%	
Cc1ccc(C(=O)c2cc(O)c(O)c([N+](=O)[O-])c2)cc1 [Compound VI, Tolcapone, reference compound]	90%	92%	0.758 µM	< 5 µM	0.68 µM	99%	67%	fold reduction of virus titer (Dengue virus; 5 μM compound): greater than 100 fold
O=C(OC[C@H]1OC(OC(=O)c2cc(O)c(O)c(OC(=O)c3cc(O)c(O)c(O)c3)c2)C(OC(=O)c2cc(O)c(O)c(OC(=O)c3cc(O)c(O)c(O)c3)c2)[C@@H](OC(=O)c2cc(O)c(O)c(OC(=O)c3cc(O)c(O)c(O)c3)c2)C1OC(=O)c1cc(O)c(O)c(OC(=O)c2cc(O)c(O)c(O)c2)c1)c1cc(O)c(O)c(OC(=O)c2cc(O)c(O)c(O)c2)c1 (some centres unmarked) [Compound VII, Tannic acid, reference compound]	99%	101%	0.768 µM	< 5 µM	0.312 µM	98%	96%	
CCOC(=O)c1oc2c(O)c(O)ccc2c(=O)c1-c1cnn(-c2ccccc2)c1 [Compound V]	75%	86%	4.8 µM		4.3 µM	75%	95%	CC50 at 24 h [1]: 168 µM; EC50 [2]: 11.7 µM; EC50 [3]: 9.7 µM; CC50 at 24 h [4]: 202 µM; IC50 (DENV-3 protease): 5 ± 1.4 µM; IC50 (DENV-4 protease): 5.32 ± 0.6 µM; IC50 (DENV-1 protease): 6.4 ± 1.2 µM
